From the supplement of paper PMC10307832

Assays:
Test in all cases: relative viability (nuclei count vs DMSO), 5 days (fraction); higher = more cells survive
[1] = compound: CCOc1cc2ncc(C#N)c(Nc3ccc(OCc4ccccn4)c(Cl)c3)c2cc1NC(=O)/C=C/CN(C)C [Neratinib]
Procedure, shortened: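 On vehicle-anchored 1536-well plates, lung cancer cell lines held overnight at 37 °C were pinned with five library-drug doses (not always all listed) spaced by √10. With no medium change over 5 days, they were then fixed, permeabilised and Hoechst-stained in one step and imaged at 4×. MetaXpress counted nuclei, and viability is the median across plates of treated-well over vehicle-well nuclei. Acceptance needed control CV below 25% and at least one doubling.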

[2] = compound: CCOc1cc2ncc(C#N)c(Nc3ccc(OCc4ccccn4)c(Cl)c3)c2cc1NC(=O)/C=C/CN(C)C [Neratinib] + CC(=O)Nc1cccc(-n2c(=O)n(C3CC3)c(=O)c3c(Nc4ccc(I)cc4F)n(C)c(=O)c(C)c32)c1 [Trametinib] (partner 0.02 µM)
Procedure, shortened: (§1)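 Five library-drug doses in √10 steps were combined with a fixed anchor-drug dose, or a single drug was given alone, by pin tool to lung cancer cell lines in 1536-well plates the day after seeding. Nuclei were stained and counted after 5 days. Relative viability is the nuclei count in treated wells over that in vehicle wells, taken as the median of duplicate plates.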

[3] = compound: CCOc1cc2ncc(C#N)c(Nc3ccc(OCc4ccccn4)c(Cl)c3)c2cc1NC(=O)/C=C/CN(C)C [Neratinib] + COc1cccc2cc(-c3nc([C@H]4CC[C@H](C(=O)O)CC4)n4ncnc(N)c34)[nH]c12 [OSI-027] (partner 0.5 µM)
Procedure, shortened: as §1

[4] = compound: CCOc1cc2ncc(C#N)c(Nc3ccc(OCc4ccccn4)c(Cl)c3)c2cc1NC(=O)/C=C/CN(C)C [Neratinib] + N=C(N)NC(=N)NCCc1ccccc1 [Phenformin] (partner 250 µM)
Procedure, shortened: as §1

Cell Line	relative viability ([1]; 0.01 µM)	relative viability ([1]; 0.03162 µM)	relative viability ([1]; 0.1 µM)	relative viability ([1]; 0.3162 µM)	relative viability ([1]; 1 µM)	relative viability ([2]; first compound 0.01 µM)	relative viability ([2]; first compound 0.03162 µM)	relative viability ([2]; first compound 0.1 µM)	relative viability ([2]; first compound 0.3162 µM)	relative viability ([2]; first compound 1 µM)	relative viability ([3]; first compound 0.01 µM)	relative viability ([3]; first compound 0.03162 µM)	relative viability ([3]; first compound 0.1 µM)	relative viability ([3]; first compound 0.3162 µM)	relative viability ([3]; first compound 1 µM)	relative viability ([4]; first compound 0.01 µM)	relative viability ([4]; first compound 0.03162 µM)	relative viability ([4]; first compound 0.1 µM)	relative viability ([4]; first compound 0.3162 µM)	relative viability ([4]; first compound 1 µM)
NCI-H2126	1.03	0.998	0.904	0.907	0.553	0.646	0.552	0.543	0.497	0.36	0.697	0.688	0.69	0.649	0.447	0.534	0.535	0.487	0.484	0.381
NCI-H2170	0.995	0.994	0.62	0.26	0.24	0.873	0.862	0.631	0.178	0.171	0.761	0.771	0.287	0.22	0.239	0.419	0.418	0.269	0.268	0.216
NCI-H2228		1.21	0.973	0.858	0.223	0.457	0.93	0.359	0.58	0.132	0.536		0.662	0.526	0.142	0.334	0.331	0.268	0.236	0.122
NCI-H2342	0.949	1.01	0.765	0.582	0.66	0.772	0.772	0.71	0.667	0.543	0.73	0.63	0.528	0.464	0.462	0.662	0.688	0.517	0.351	0.403
NCI-H2347	1.07	1.08	0.904	1.08		0.264	0.317	0.262	0.248	0.266	0.453	0.573		0.434	0.32	0.416	0.565		0.338	0.244
NCI-H2405	1.06	1.07	0.989	0.98	0.739	0.682	0.612		0.465	0.513	0.666	0.653	0.566	0.69	0.496	0.421	0.393	0.414	0.33	0.359
NCI-H3122		1.02	0.931	0.991	0.5	0.29	0.214	0.2	0.227	0.175	1.03	0.987	0.9	0.9	0.154	0.366	0.407	0.317	0.35	0.187
PC-3 [JPC-3]	1.07	1.12	0.947	0.687	0.471	0.745	0.831	0.629	0.427	0.435	0.814	0.749	0.662	0.544	0.319	0.459	0.497	0.432	0.365	0.336
PC-14	1.1	1.13	0.964	0.732	0.211	0.717	0.832	0.573	0.096	0.0456	0.739	0.987	0.798	0.177	0.0699	0.602	0.764	0.655	0.267	0.186
RERF-LC-KJ	1	0.998	0.86	0.806	0.556	0.844	0.889	0.785	0.694	0.504	0.539		0.477	0.434	0.326	0.427	0.405	0.385	0.318	0.353
SK-LU-1	1.1	1.2		0.979	0.46	0.517	0.58	0.457	0.442	0.344	0.373	0.384	0.305	0.238	0.135	0.584	0.515	0.521	0.381	0.25
SK-MES-1	1.06	1.09	0.91	0.463	0.298	0.648	0.564	0.564	0.332		0.566	0.687	0.538	0.305	0.185	0.675	0.706	0.665	0.285	0.2
SW 900		1.05	0.772	0.94	0.94	0.866	0.906	0.527	0.729	0.467	0.597	0.604	0.621	0.574	0.385	0.537	0.658		0.609	0.309
SW 1573	1.09	1.18	0.828	0.912	0.716	0.554	0.57	0.497	0.593	0.276	0.685	0.595	0.542	0.544	0.276	0.431	0.466	0.384	0.311	0.185
UMC-11	0.901	1.14	0.748	0.898	0.832	0.621	0.879	0.673	0.666	0.686	0.487	0.487	0.415	0.414	0.308	0.333	0.328	0.32	0.293	0.275
